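How tested: cells in 96-well plates exposed to compound for 48 hours at five concentrations. The concentration for 50% growth inhibition is given as GI50. TGI: concentration producing complete growth inhibition.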
Experiments:
Assay in all cases: DTP human tumour cell line panel, 48 h
[1] = test system: 786-0 renal
[2] = test system: EKVX NSCLC
[3] = test system: HL-60(TB) leukemia
[4] = test system: HS 578T breast
[5] = test system: KM12 colon
[6] = test system: PC-3 prostate
[7] = test system: RPMI-8226 leukemia
[8] = test system: TK-10 renal
[9] = test system: UACC-257 melanoma
[10] = test system: MCF7 breast

| Compound | TGI [1] | TGI [2] | TGI [3] | TGI [4] | TGI [5] | TGI [6] | TGI [7] | TGI [8] | TGI [9] | GI50 [1] | GI50 [2] | GI50 [3] | GI50 [4] | GI50 [5] | GI50 [6] | GI50 [7] | GI50 [8] | GI50 [9] | GI50 [10] | TGI [10] |
| --- | --- | --- | --- | --- | --- | --- | --- | --- | --- | --- | --- | --- | --- | --- | --- | --- | --- | --- | --- | --- |
| O=C(c1ccc(Cl)cc1)C1OC12C(=O)Nc1ccccc12 (centres undefined) | 26.9 µM | 33.4 µM | 1.58 µM | 44.6 µM | 32.5 µM | 41 µM | 10.2 µM | 35.2 µM | 27.8 µM |  |  |  |  |  |  |  |  |  |  |  |
| CC1=C(C(=O)Nc2ccc(Cl)c(Cl)c2)C(c2ccccc2O)NC(=O)N1 (centres undefined) | > 50 µM | > 50 µM | > 50 µM | > 50 µM | > 50 µM | > 50 µM | > 50 µM | > 50 µM | > 50 µM | > 50 µM | 28.6 µM | > 50 µM | 32.2 µM | 16.9 µM | 33.7 µM | 34.8 µM | 22.1 µM | > 50 µM |  |  |
| FC1OC2OC1C(OCc1ccccc1)C(OCc1ccccc1)C2OCc1ccccc1 (centres undefined) | > 100 µM | > 100 µM | 62.9 µM |  | > 100 µM |  | 61.2 µM | > 100 µM | > 100 µM |  |  |  |  |  |  |  |  |  |  |  |
| CN1CCc2c1nc(-c1ccc([N+](=O)[O-])cc1)c1c2N(C)CC1 | > 100 µM | > 100 µM | > 100 µM |  | > 100 µM |  | > 100 µM | > 100 µM | > 100 µM |  |  |  |  |  |  |  |  |  |  |  |
| S=c1nc(-c2ccnc(-c3nc(=S)[nH][nH]3)c2)[nH][nH]1 | > 100 µM | > 100 µM | > 100 µM |  | > 100 µM |  | > 100 µM | > 100 µM | > 100 µM |  |  |  |  |  |  |  |  |  |  |  |
| COc1ccc(S(=O)(=O)N(C)CC(=O)O)cc1 | > 100 µM | > 100 µM | > 100 µM |  | > 100 µM |  | > 100 µM | > 100 µM | > 100 µM |  |  |  |  |  |  |  |  |  |  |  |
| CCCCCCCCCCCCCCCCOC(=O)c1cc(O)cc(C(=O)OCCCCCCCCCCCCCCCC)c1 | > 100 µM | > 100 µM | > 100 µM |  | > 100 µM |  | > 100 µM | > 100 µM | > 100 µM |  |  |  |  |  |  |  |  |  |  |  |
| O=C(Nc1cccc(NC(=O)c2cc(=O)c3ccccc3o2)n1)c1cc(=O)c2ccccc2o1 | > 100 µM | > 100 µM | > 100 µM |  | > 100 µM |  | 81.3 µM | > 100 µM | > 100 µM |  |  |  |  |  |  |  |  |  |  |  |
| COc1cc2cc3c4c(cc(OC)c(OC)c4c2cc1OC)CCN3C(=O)CCC(=O)NCCCN(C)C | > 100 µM | > 100 µM | 56.9 µM |  | > 100 µM |  | > 100 µM | > 100 µM | > 100 µM |  |  |  |  |  |  |  |  |  |  |  |
| CCOC(=O)C(NC(=O)c1[nH]cnc1/N=N/N(C)C)C(C)C (centres undefined) | > 100 µM | > 100 µM | > 100 µM |  | > 100 µM |  | > 100 µM | > 100 µM | > 100 µM |  |  |  |  |  |  |  |  |  |  |  |
| Oc1[nH]c2cc(Cl)ccc2c1/C=c1/ccc2c(c1)N=C(c1cc(F)cc(F)c1)N=2 | 12.8 µM | 32.4 µM |  | 10.2 µM | 7.06 µM | 8.5 µM | 6.28 µM | 18.8 µM | 19.2 µM | 3.31 µM | 5.27 µM |  | 1.55 µM | 2.2 µM | 2.12 µM | 2.38 µM | 5.53 µM | 0.927 µM | 1.62 µM | 11.3 µM |
| CC(=O)Oc1ccc(/C=N/NC(N)=S)nc1 | 16.1 µM | > 100 µM | 8.44 µM |  | > 100 µM | > 100 µM | > 100 µM | > 100 µM | 57.7 µM | 3.53 µM | 10.8 µM | 1.74 µM |  | 4.82 µM | 5.28 µM | 9.43 µM | 47.8 µM | 14.2 µM | 2.13 µM | > 100 µM |
| CC(=O)N(Cc1ccccc1)c1ccccc1I(=O)=O | > 100 µM | > 100 µM | 50.8 µM | > 100 µM | > 100 µM |  | 32.7 µM | > 100 µM | > 100 µM | 57.8 µM | 88.5 µM | 14.9 µM | > 100 µM | 42 µM |  | 15.7 µM | 45.2 µM | > 100 µM | 16.5 µM | 40.5 µM |
| CCOC(=O)[C@H]1Nc2ccccc2C2c3ccccc3CC21 (some centres undefined) | > 100 µM |  |  |  | > 100 µM |  | > 100 µM | > 100 µM | 56.9 µM |  |  |  |  |  |  |  |  |  |  |  |
| CN(C=O)/C=C/c1cc(O)ccc1O | 33.7 µM | 63.8 µM | 40.8 µM |  | > 100 µM |  | 75.6 µM | 54.1 µM | 52.7 µM |  |  |  |  |  |  |  |  |  |  |  |
| COC(=O)CCCC(=O)NC1=C(NCc2ccccc2)C(=O)c2ccccc2C1=O | > 100 µM | > 100 µM | 77.3 µM | > 100 µM | > 100 µM |  | > 100 µM | > 100 µM | 89.7 µM |  |  |  |  |  |  |  |  |  |  | > 100 µM |
| COc1cc2c(c(OC)c1OC)-c1ccc(SC)c(=O)cc1[C@@H](NC(=O)c1ccc(Cl)cc1)CC2 | 15.8 µM |  | < 0.01 µM |  |  |  | 95.3 µM | > 100 µM | > 100 µM |  |  |  |  |  |  |  |  |  |  |  |
| COC(=O)[C@@H]1CN(C(=O)c2ccccc2)C(=O)N1C(=O)OCc1ccccc1 | > 100 µM | > 100 µM | > 100 µM | > 100 µM | > 100 µM |  | > 100 µM | > 100 µM | > 100 µM |  |  |  |  |  |  |  |  |  |  | > 100 µM |
| O=C(NCCCCCCCNC(=O)OCc1ccc2c(Cl)cc(Cl)c(O)c2n1)OCc1ccc2c(Cl)cc(Cl)c(O)c2n1 | 2.89 µM | 3.22 µM | 1.97 µM | 5.35 µM | 2.87 µM | 2.16 µM | 0.735 µM | 2.73 µM | 2.6 µM | 1.4 µM | 1.55 µM | 0.47 µM | 1.4 µM | 1.18 µM | 0.625 µM | 0.247 µM | 1.4 µM | 1.21 µM |  |  |
| Cc1cc([N+](=O)[O-])c(C)c(Br)c1C | > 100 µM | > 100 µM |  | > 100 µM | > 100 µM | > 100 µM | > 100 µM | > 100 µM | > 100 µM |  |  |  |  |  |  |  |  |  |  | > 100 µM |

— PubChem BioAssay (NCI)
